22 compounds from US20110144160A1, “Antagonists of Prostaglandin D2 Receptors” (Amira Pharmaceuticals, Inc., priority 2008, published 2011) can be followed below.

For the first assay, the target named is T1, human DP2 receptor (Homo sapiens, UniProt Q9Y5Y4).
T1 construct: expressed in transfected cells
T1 sequence (Q9Y5Y4 1-395): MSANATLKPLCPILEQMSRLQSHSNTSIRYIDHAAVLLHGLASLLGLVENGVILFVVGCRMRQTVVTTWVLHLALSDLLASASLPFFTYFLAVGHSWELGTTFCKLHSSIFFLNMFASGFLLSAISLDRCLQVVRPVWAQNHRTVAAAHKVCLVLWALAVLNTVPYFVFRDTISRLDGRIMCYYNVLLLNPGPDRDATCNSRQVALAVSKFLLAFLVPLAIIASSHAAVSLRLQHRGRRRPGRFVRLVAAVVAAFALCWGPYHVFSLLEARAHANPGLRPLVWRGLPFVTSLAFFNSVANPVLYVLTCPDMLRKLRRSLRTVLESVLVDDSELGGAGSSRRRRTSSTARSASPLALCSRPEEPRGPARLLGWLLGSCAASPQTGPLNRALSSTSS
Nature of the assay: DP2/CRTH2 binding assay ([3H]PGD2 radioligand). As to conditions: membranes of HEK293 cells expressing recombinant human DP2, 1 nM [3H]PGD2; read-out: hDP2. As to the method: The ability of a compound to bind to the human DP2 receptor is assessed via a radioligand binding assay using [^3H]PGD2. HEK293 cells stably expressing recombinant human DP2 are resuspended in 10 mM Hepes, 7.4 containing 1 mM DTT, lysed and centrifuged at 75,000×g to pellet the membranes. The membranes are resuspended in 10 mM Hepes, 7.4 containing 1 mM DTT and 10% glycerol to approximately 5 mg protein/ml. Membranes (2-10 μg protein/well) are incubated in 96-well plates with 1 nM [^3H]PGD2 and test compound in Assay Buffer (50 mM Hepes, 10 mM MnCl2, 1 mM EDTA, plus or minus 0.2% human serum albumin, pH 7.4) for 60 minutes at room temperature. The reactions are terminated by rapid filtration through Whatman GF/C glass fibre filter plates. The filter plates were pre-soaked in 0.33% polythylenimine for 30 minutes at room temperature then washed in Wash Buffer (50 mM Hepes, 0.5 M NaCl pH 7.4) prior to harvesting. After harvesting, the filter plates are washed 3 times with 1 ml cold Wash Buffer then dried. Scintillant is then added to the plates and the radioactivity retained on the filters is determined on a Packard TopCount (Perkin Elmer). Specific binding is determined as total radioactive binding minus non-specific binding in the presence of 10 μM PGD2. IC50s were determined using GraphPad prism analysis of drug titration curves.
Take `COc1ccc(CC(=O)O)cc1Oc1ccc(NC(=O)c2ccc(Cl)cc2)cc1CSCC(F)(F)F` [Compound 1, {3-[4-(4-Chloro-benzoylamino)-2-(2,2,2-trifluoro-ethylsulfanylmethyl)-phenoxy]-4-methoxy-phenyl}-acetic acid]: the IC50 is < 300 nM.

With `COc1ccc(CC(=O)O)cc1Oc1ccc(NC(=O)CC(C)(C)C)cc1CSC(C)(C)C` [Compound 37, {3-[2-tert-Butylsulfanylmethyl-4-(3,3-dimethyl-butyrylamino)-phenoxy]-4-methoxy-phenyl}-acetic acid], the IC50 was < 300 nM.

On to `COc1ccc(CC(=O)O)cc1Oc1ccc(N2CCOC2=O)cc1CSCC(F)(F)F` [Compound 38, {4-Methoxy-3-[4-(2-oxo-oxazolidin-3-yl)-2-(2,2,2-trifluoro-ethylsulfanylmethyl)-phenoxy}-phenyl]-acetic acid], for which the IC50 was 300 to 1000 nM.

Turning to `COc1ccc(CC(=O)O)cc1Oc1ccc(C(=O)NC(C)(C)C)cc1CSC(C)(C)C` [Compound 39, [3-(4-tert-Butylcarbamoyl-2-tert-butylsulfanylmethyl-phenoxy)-4-methoxy-phenyl]-acetic acid], the IC50 is < 300 nM.

Turning to `COc1ccc(CC(=O)O)cc1Oc1ccc(C(=O)NCC(=O)c2ccccc2)cc1CSC(C)(C)C` [Compound 40, {3-[2-tert-butylsulfanylmethyl-4-(2-oxo-2-phenyl-ethylcarbamoyl)-phenoxy]-4-methoxy-phenyl}-acetic acid], the IC50 is < 300 nM.

Regarding `COc1ccc(CC(=O)O)cc1Oc1ccc(C(=O)NC(C)(C)Cc2ccc(F)cc2)cc1CSC(C)(C)C` [Compound 41, (3-{2-tert-butylsulfanylmethyl-4-[2-(4-fluoro-phenyl)-1,1-dimethyl-ethylcarbamoyl]-phenoxy}-4-methoxy-phenyl)-acetic acid], the IC50 was < 300 nM.

Take `COc1ccc(CC(=O)O)cc1Oc1ccc(C(=O)N2CCCCC2)cc1CSC(C)(C)C` [Compound 42, {3-[2-tert-butylsulfanylmethyl-4-(piperidine-1-carbonyl)-phenoxy]-4-methoxy-phenyl}-acetic acid]: the IC50 is > 1000 nM.

For `COc1ccc(NC(=O)c2ccc(Oc3cc(CC(=O)O)ccc3OC)c(CSC(C)(C)C)c2)cn1` [Compound 43, {3-[2-tert-butylsulfanylmethyl-4-(6-methoxy-pyridin-3-ylcarbamoyl)-phenoxy]-4-methoxy-phenyl}-acetic acid], the IC50 is < 300 nM.

For the compound `COc1ccc(CC(=O)O)cc1Oc1ccc(C(=O)NCC(F)(F)F)cc1CSC(C)(C)C` [Compound 44, {3-[2-tert-butylsulfanylmethyl-4-(2,2,2-trifluoro-ethylcarbamoyl)-phenoxy]-4-methoxy-phenyl}-acetic acid], the IC50 is < 300 nM.

With `COc1ccc(CC(=O)O)cc1Oc1ccc(C(=O)N(C)C(C)C)cc1CSC(C)(C)C` [Compound 45, {3-[2-tert-butylsulfanylmethyl-4-(isopropyl-methyl-carbamoyl)-phenoxy]-4-methoxy-phenyl}-acetic acid], the IC50 was > 1000 nM.

As for `COc1ccc(CC(=O)O)cc1Oc1ccc(C(=O)NCC(C)(C)C)cc1CSC(C)(C)C` [Compound 46, {3-[2-tert-butylsulfanylmethyl-4-(2,2-dimethyl-propylcarbamoyl)-phenoxy]-4-methoxy-phenyl}-acetic acid], the IC50 was 300 to 1000 nM.

Turning to `CC(C)(C)SCc1cc(NC(=O)C(C)(C)C)ccc1Oc1cc(Cl)cc(CC(=O)O)c1` [Compound 47, {3-[2-tert-Butylsulfanylmethyl-4-(2,2-dimethyl-propionylamino)-phenoxy]-5-chloro-phenyl}-acetic acid], the IC50 is < 300 nM.

Turning to `CC(C)(C)C(=O)Nc1ccc(Oc2cc(Cl)cc(CC(=O)O)c2)c(CS(=O)(=O)C(C)(C)C)c1` [Compound 48, {3-Chloro-5-[4-(2,2-dimethyl-propionylamino)-2-(2-methyl-propane-2-sulfonylmethyl)-phenoxy]-phenyl}-acetic acid], the IC50 is < 300 nM.

For the compound `CC(C)(C)C(=O)Nc1ccc(Oc2cc(CC(=O)O)ccc2OC(F)F)c(CSCC(F)(F)F)c1` [Compound 49, {4-Difluoromethoxy-3-[4-(2,2-dimethyl-propionylamino)-2-(2,2,2-trifluoro-ethylsulfanylmethyl)-phenoxy]-phenyl}-acetic acid], the IC50 is < 300 nM.

Regarding `CC(C)(C)C(=O)Nc1ccc(Oc2cc(CC(=O)O)ccc2OC(F)F)c(CS(=O)(=O)CC(F)(F)F)c1` [Compound 50, {4-Difluoromethoxy-3-[4-(2,2-dimethyl-propionylamino)-2-(trifluoro-ethanesulfonylmethyl)-phenoxy]-phenyl}-acetic acid], the IC50 was < 300 nM.

On to `Cc1ccc(CC(=O)O)cc1Oc1ccc(NC(=O)C(C)(C)C)cc1CSCC(F)(F)F` [Compound 51, {3-[4-(2,2-Dimethyl-propionylamino)-2-(2,2,2-trifluoro-ethylsulfanylmethyl)-phenoxy]-4-methyl-phenyl}-acetic acid], for which the IC50 is < 300 nM.

Turning to `CC(C)SCc1cc(NC(=O)C(C)(C)C)ccc1Oc1cc(CC(=O)O)ccc1Cl` [Compound 52, {4-Chloro-3-[4-(2,2-dimethyl-propionylamino)-2-isopropylsulfanylmethyl-phenoxy]-phenyl}-acetic acid], the IC50 was < 300 nM.

As to `CC(C)(C)C(=O)Nc1ccc(Oc2cc(CC(=O)O)ccc2Cl)c(CSCC(F)(F)F)c1` [Compound 53, {4-Chloro-3-[4-(2,2-dimethyl-propionylamino)-2-(2,2,2-trifluoro-ethylsulfanylmethyl)-phenoxy]-phenyl}-acetic acid], the IC50 was < 300 nM.

As for `CC(C)SCc1cc(NC(=O)C(C)(C)C)ccc1Oc1cc(CC(=O)O)cc(C(F)(F)F)c1` [Compound 54, {3-[4-(2,2-Dimethyl-propionylamino)-2-isopropylsulfanylmethyl-phenoxy]-5-trifluoromethyl-phenyl}-acetic acid], the IC50 is < 300 nM.

For the compound `C=Cc1ccc(CC(=O)O)cc1Oc1ccc(NC(=O)C(C)(C)C)cc1CSCC(F)(F)F` [Compound 55, {3-[4-(2,2-Dimethyl-propionylamino)-2-(2,2,2-trifluoro-ethylsulfanylmethyl)-phenoxy]-4-vinyl-phenyl}-acetic acid], the IC50 was < 300 nM.

As to `CCc1ccc(CC(=O)O)cc1Oc1ccc(NC(=O)C(C)(C)C)cc1CSCC(F)(F)F` [Compound 56, {3-[4-(2,2-Dimethyl-propionylamino)-2-(2,2,2-trifluoro-ethylsulfanylmethyl)-phenoxy]-4-ethyl-phenyl}-acetic acid], the IC50 was < 300 nM.

Turning to `COc1ccc(CC(=O)O)cc1Oc1ccc(NS(=O)(=O)c2cccc3c(N(C)C)cccc23)cc1CSC(C)(C)C` [Compound 72, {3-[2-tert-butylsulfanylmethyl-4-(5-dimethylamino-naphthalene-1-sulfonylamino)-phenoxy]-4-methoxy-phenyl}-acetic acid], the IC50 was 300 to 1000 nM.

In a further assay the target is T2, human DP1 receptor (Homo sapiens, UniProt Q13258).
T2 construct: tissue Biological Specialty Corporation; host or cells: human platelets, membrane preparation
T2 sequence (Q13258 1-359): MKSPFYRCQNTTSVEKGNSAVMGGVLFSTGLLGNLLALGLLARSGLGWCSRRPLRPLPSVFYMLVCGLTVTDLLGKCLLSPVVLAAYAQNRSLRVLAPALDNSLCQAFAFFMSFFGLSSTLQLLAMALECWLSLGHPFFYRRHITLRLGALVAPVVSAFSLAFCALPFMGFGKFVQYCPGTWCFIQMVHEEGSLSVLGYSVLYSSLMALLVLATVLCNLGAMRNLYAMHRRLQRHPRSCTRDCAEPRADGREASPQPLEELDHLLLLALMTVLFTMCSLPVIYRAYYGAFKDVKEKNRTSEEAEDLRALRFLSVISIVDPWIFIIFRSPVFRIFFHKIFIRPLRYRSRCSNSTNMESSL
The experiment in a line: DP1 binding assay ([3H]BWA868C radioligand). As to conditions: human platelet membranes, 2 nM [3H]BWA868C; read-out: hDP1. As to the method: The ability of a compound to bind to the human DP1 receptor was evaluated via a radioligand membrane binding assay using the DP1 selective synthetic ligand [^3H]BWA868C. Packed human platelets (Biological Specialty Corporation), were resuspended in 6 volumes of Hepes/HBSS buffer (10 mM Hepes, 1 mM DTT in Hanks Balanced Salt Solution (HBSS), lysed and centrifuged at 75,000×g to pellet the membranes. Membranes were resuspended in Hepes/HBSS buffer to approximately 12 mg protein/ml. Membranes (20 μg protein/well) are incubated in 96-well plates with 2 nM [^3H]BWA868C and test compound in Assay Buffer (50 mM Hepes, 10 mM MnCl2, 1 mM EDTA, plus or minus 0.2% human serum albumin, pH 7.4) for 60 minutes at room temperature. The reactions are terminated by rapid filtration through Whatman GF/C glass fibre filter plates. The filter plates were pre-soaked in 0.33% polethylenimine for 30 minutes at room temperature then washed in Wash Buffer (50 mM Hepes, 0.5 M NaCl pH 7.4) prior to harvesting. After harvesting, the filter plates are washed 3 times with 1 ml cold Wash Buffer then dried. Scintillant is then added to the plates and the radioactivity retained on the filters is determined on a Packard TopCount (Perkin Elmer). Specific binding is determined as total radioactive binding minus non-specific binding in the presence of 10 μM BW A868C. IC50s were determined using GraphPad prism analysis of drug titration curves.
As for `COc1ccc(CC(=O)O)cc1Oc1ccc(NC(=O)c2ccc(Cl)cc2)cc1CSCC(F)(F)F` [Compound 1, {3-[4-(4-Chloro-benzoylamino)-2-(2,2,2-trifluoro-ethylsulfanylmethyl)-phenoxy]-4-methoxy-phenyl}-acetic acid], the IC50 was > 1000 nM.
